Reference: article PMC4207403, “Docking Studies and Biological Activity of Fosinopril Analogs” (International Journal of Medicinal Chemistry, 2014)

Key:
[1] = target: T1, angiotensin-I converting enzyme (ACE) (Rattus norvegicus, UniProt P47820); experiment: In vitro angiotensin-I converting enzyme inhibitory activity, spectrophotometric assay with rat lung extract; assay type: biochemical; conditions: for inhibition at 0.0002 µM: 0.2 nM; for inhibition at 0.0004 µM: 0.4 nM; for inhibition at 0.0006 µM: 0.6 nM; for inhibition at 0.0008 µM: 0.8 nM; for inhibition at 0.001 µM: 1 nM; for IC50: ACE inhibition, rat lung extract
T1 construct: The reaction was started by the addition of 40 μL rat lung extract; from tissue; host or cells: rat lung extract
T1 sequence (P47820 36-1313): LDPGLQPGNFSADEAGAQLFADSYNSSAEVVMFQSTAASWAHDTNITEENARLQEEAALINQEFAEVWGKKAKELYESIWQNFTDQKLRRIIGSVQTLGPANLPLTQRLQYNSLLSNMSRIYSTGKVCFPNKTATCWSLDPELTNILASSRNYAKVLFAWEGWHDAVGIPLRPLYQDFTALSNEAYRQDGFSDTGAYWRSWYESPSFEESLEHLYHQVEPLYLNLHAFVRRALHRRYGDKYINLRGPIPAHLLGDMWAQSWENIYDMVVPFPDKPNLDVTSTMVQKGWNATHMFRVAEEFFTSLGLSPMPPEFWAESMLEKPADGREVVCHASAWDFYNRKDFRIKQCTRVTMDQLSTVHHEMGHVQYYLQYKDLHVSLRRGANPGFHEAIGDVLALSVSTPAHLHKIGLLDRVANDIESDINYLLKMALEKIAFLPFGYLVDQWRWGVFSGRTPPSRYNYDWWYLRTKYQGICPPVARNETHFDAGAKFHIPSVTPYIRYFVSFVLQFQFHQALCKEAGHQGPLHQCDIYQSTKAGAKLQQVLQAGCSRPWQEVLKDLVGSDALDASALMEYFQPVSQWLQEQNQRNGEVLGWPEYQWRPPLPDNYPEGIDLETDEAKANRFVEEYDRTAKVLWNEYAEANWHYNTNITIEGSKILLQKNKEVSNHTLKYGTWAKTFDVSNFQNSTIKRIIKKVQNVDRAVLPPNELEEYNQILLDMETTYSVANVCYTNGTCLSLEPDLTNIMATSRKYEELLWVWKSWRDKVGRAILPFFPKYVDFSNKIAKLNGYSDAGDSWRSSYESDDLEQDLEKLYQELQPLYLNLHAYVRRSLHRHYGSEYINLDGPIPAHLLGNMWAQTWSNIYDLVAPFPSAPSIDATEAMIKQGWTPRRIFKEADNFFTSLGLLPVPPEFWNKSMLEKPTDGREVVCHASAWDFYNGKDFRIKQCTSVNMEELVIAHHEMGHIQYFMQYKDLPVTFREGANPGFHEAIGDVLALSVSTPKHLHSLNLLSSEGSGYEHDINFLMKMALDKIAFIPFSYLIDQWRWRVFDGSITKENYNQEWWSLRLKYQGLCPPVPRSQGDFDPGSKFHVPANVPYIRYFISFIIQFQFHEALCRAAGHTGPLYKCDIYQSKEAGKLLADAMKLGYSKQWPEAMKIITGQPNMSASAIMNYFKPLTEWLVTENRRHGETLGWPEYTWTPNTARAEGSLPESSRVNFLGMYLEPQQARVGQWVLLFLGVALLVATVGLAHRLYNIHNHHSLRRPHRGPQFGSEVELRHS
Protocol: This method is based on the cleavage of the substrate hippuryl-glycyl-glycine by ACE and subsequent reaction with trinitrobenzenesulfonic acid to form 2,4,6-trinitrophenyl-glycyl-glycine. The method relies on spectrophotometric determination of hippuric acid. It involves a colorimetric reaction of hippuric acid with benzene sulfonyl chloride.
The assay system consisted of 200 μL of substrate solution, water, and drug solution in a volume of 0.25 mL. The reaction was started by the addition of 40 μL rat lung extract. After 30 minutes of incubation at 37°C, the reaction was stopped by adding 2 mL of stop solution (1.195 g HEPES and 0.0465 g of EDTA were dissolved in 40 mL distilled water. The pH was adjusted to 9.0 with 1 mol/lit sodium hydroxide and diluted to 50 mL with distilled water). Then 0.5 mL distilled water and 1.0 mL colour reagent were added, mixed vigorously, left for 5 min, and centrifuged at 3000–4000 rpm for 10 minutes at room temperature to remove any precipitate. The corresponding enzyme inhibitors blanks were assayed in the same manner except for adding the stop solution before the lung extract. The absorbance of the yellow product of the reaction between liberated hippurate and cyanuric chloride was measured spectrophotometrically at 405 nm against distilled water as blank.Controls without drug were run simultaneously in all cases. “One inhibitory unit is the amount of inhibitor that suppressed the ACE activity by one unit.”

[2] = background statement; cited from earlier work
[3] = test system: ACE; conditions: background statement; cited from earlier work
[4] = read-out: Percent inhibition of ACE

Row | inhibition at 10 pM ([1]; 0.01 nM, read-out: Percent inhibition of ACE) [%] | inhibition at 20 pM ([1]; 0.02 nM, read-out: Percent inhibition of ACE) [%] | inhibition at 0.0002 µM [1, 4] [%] | inhibition at 0.0004 µM [1, 4] [%] | inhibition at 0.0006 µM [1, 4] [%] | inhibition at 0.0008 µM [1, 4] [%] | inhibition at 0.001 µM [1, 4] [%] | IC50 [1] [nM] | ACE inhibition activity, in words ([1]; compared with other analogs and Fosinopril) | inhibition at 0.0001 µM ([1]; 0.1 nM, read-out: Percent inhibition of ACE) [%] | SMILES | Bioavailability [2] | Potency relative to other ACE inhibitors [3]
1 | 44.7 ± 3.85 | 53.2 ± 5.73 | 75.1 ± 4.66 | 77.8 ± 3.21 | 81.7 ± 6.09 | 84 ± 5.11 | 84.5 ± 4.52 | 0.017 ± 0.009 | highest ACE inhibition activity | – | O=C(O)C1Cc2ccccc2CN1C(=O)CP(=O)(O)CCCCc1ccccc1 (stereo not shown) [Analog A2] | – | –
2 | – | – | 63 ± 6.01 | 68.7 ± 3.99 | 73 ± 4.76 | 88.2 ± 5.2 | 89.1 ± 3.82 | 0.143 ± 0.012 | – | 44.1 ± 4.35 | CCC(=O)O[C@@H](O[P@](=O)(CCCCc1ccccc1)CC(=O)N1C[C@H](C2CCCCC2)C[C@H]1C(=O)O)C(C)C [Fosinopril] | – | –
3 | – | – | – | – | – | – | – | – | – | – | O=C(O)[C@@H]1C[C@@H](C2CCCCC2)CN1C(=O)CP(=O)(O)CCCCc1ccccc1 [Fosinoprilat] | poor bioavailability | more potent than captopril but less potent than enalaprilat
4 | – | – | – | – | – | – | – | – | – | – | C[C@H](N[C@@H](CCc1ccccc1)C(=O)O)C(=O)N1CCC[C@H]1C(=O)O [enalaprilat] | poor bioavailability | –
